# pIC50: −log10 of the molar value.
# Target: Sphingosine kinase 1 (Homo sapiens, UniProt Q9NYA1)
# Test: Inhibition of recombinant full length GST-tagged human SPHK1 expressed in baculovirus expression system incubated for 1 hr in presence of ATP by Alexa Fluor 647 tracer based Adapta assay
# Sequence of Sphingosine kinase 1 (Q9NYA1 whole entry): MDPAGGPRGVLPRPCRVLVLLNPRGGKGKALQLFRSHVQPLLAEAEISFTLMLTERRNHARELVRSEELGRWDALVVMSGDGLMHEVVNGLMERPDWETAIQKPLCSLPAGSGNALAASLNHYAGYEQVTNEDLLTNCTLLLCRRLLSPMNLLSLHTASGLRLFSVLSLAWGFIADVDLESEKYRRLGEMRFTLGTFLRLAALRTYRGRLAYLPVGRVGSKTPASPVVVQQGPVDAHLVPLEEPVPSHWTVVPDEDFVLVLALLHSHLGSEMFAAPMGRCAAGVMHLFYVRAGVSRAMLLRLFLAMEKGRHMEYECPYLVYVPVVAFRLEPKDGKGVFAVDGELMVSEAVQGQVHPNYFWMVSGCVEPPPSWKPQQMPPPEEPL
row,Structure (SMILES),pIC50
1,O=C(N/N=C/C1CCCCC1)c1cc(-c2ccc3ccccc3c2)[nH]n1,< 5.00
2,O=C(N/N=C/c1ccc(O)cc1)c1cc(-c2ccc3ccccc3c2)n[nH]1,< 5.00
3,COc1ccc2ccccc2c1/C=N/NC(=O)c1cc(-c2ccc3ccccc3c2)[nH]n1,< 5.00
4,O=C(N/N=C/c1ccccc1)c1cc(-c2ccc3ccccc3c2)[nH]n1,< 5.00
5,COc1ccc(/C=N/NC(=O)c2cc(-c3ccc4ccccc4c3)[nH]n2)cc1,< 5.00
6,COc1ccc(/C=N/NC(=O)c2cc(-c3ccc4ccccc4c3)[nH]n2)cc1OC,5.18
7,O=C(N/N=C/c1ccc(Cl)cc1)c1cc(-c2ccc3ccccc3c2)[nH]n1,< 5.00
8,COc1ccccc1/C=N/NC(=O)c1cc(-c2ccc3ccccc3c2)[nH]n1,< 5.00
9,O=C(N/N=C/c1c(O)ccc2ccccc12)c1cc(-c2ccc3ccccc3c2)n[nH]1,< 5.00
10,COc1cccc(/C=N/NC(=O)c2cc(-c3ccc4ccccc4c3)[nH]n2)c1,< 5.00
11,O=C(N/N=C/c1cccc([N+](=O)[O-])c1)c1cc(-c2ccc3ccccc3c2)[nH]n1,< 5.00
12,O=C(N/N=C/c1ccccc1O)c1cc(-c2ccc3ccccc3c2)n[nH]1,< 5.00
13,O=C(N/N=C/c1ccc2c(c1)OCCO2)c1cc(-c2ccc3ccccc3c2)[nH]n1,< 5.00
14,O=C(N/N=C/c1cccnc1)c1cc(-c2ccc3ccccc3c2)[nH]n1,< 5.00
15,O=C(N/N=C/c1cccc2ccccc12)c1cc(-c2ccc3ccccc3c2)[nH]n1,< 5.00
16,O=C(N/N=C/c1cccc(O)c1)c1cc(-c2ccc3ccccc3c2)n[nH]1,< 5.00
